{"source": "patent US8163718B2", "about": "“Nucleoside analogues containing phosphonate or phosphonamide groups” (Gilead Sciences, Inc., priority 2008, dated 2012)", "test_in_all_cases": "Cytostatic cell culture assay (GI50), SRB", "type_in_all_cases": "cell-based", "key": {"[1]": {"system": "NCI-H23", "conditions": "Homo sapiens, NCI-H23, 120 h; 5 days incubation", "summary_of_the_method": "(§1)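 Cell mass was quantified by sulforhodamine B binding to TCA-fixed proteins, read at 500 nm. Compound treatment lasted 5 days at 37 °C, and GI50 was obtained by sigmoidal curve fitting.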"}, "[2]": {"system": "BT-549", "conditions": "Homo sapiens, BT-549, 120 h; 5 days incubation", "summary_of_the_method": "as §1"}, "[3]": {"system": "HCT-15", "conditions": "Homo sapiens, HCT-15, 120 h; 5 days incubation", "summary_of_the_method": "as §1"}, "[4]": {"system": "A549", "conditions": "Homo sapiens, A549, 120 h; 5 days incubation", "summary_of_the_method": "as §1"}, "[5]": {"system": "Hs-578", "conditions": "Hs578, 120 h; 5 days incubation", "summary_of_the_method": "as §1"}, "[6]": {"system": "Du-145", "conditions": "Homo sapiens, DU-145, 120 h; 5 days incubation", "summary_of_the_method": "as §1"}, "[7]": {"system": "PC3", "conditions": "Homo sapiens, PC-3, 120 h; 5 days incubation", "summary_of_the_method": "as §1"}, "[8]": {"system": "HCT-116", "conditions": "Homo sapiens, HCT-116, 120 h; 5 days incubation", "summary_of_the_method": "as §1"}}, "data": [{"compound": "CCCOc1nc(N)nc2c1ncn2CCOCP(=O)(N1CCC[C@H]1C(=O)OCC)N1CCC[C@H]1C(=O)OCC", "note": "[Example 21]", "values": [{"measurement": "GI50", "setting": "[1]", "result": 0.002, "unit": "µM"}, {"measurement": "GI50", "setting": "[2]", "result": 0.033, "unit": "µM"}, {"measurement": "GI50", "setting": "[3]", "result": 6.7, "unit": "µM"}, {"measurement": "GI50", "setting": "[4]", "result": 0.128, "unit": "µM"}, {"measurement": "GI50", "setting": "[5]", "result": 0.017, "unit": "µM"}, {"measurement": "GI50", "setting": "[6]", "result": 0.002, "unit": "µM"}, {"measurement": "GI50", "setting": "[7]", "result": 0.026, "unit": "µM"}, {"measurement": "GI50", "setting": "[8]", "result": 0.041, "unit": "µM"}]}]}
